According to patent publication US9827219B2, “Compositions and methods for lowering levels of high-sensitivity C-reactive protein (HS-CRP) in a subject” (priority 2012, dated 2017):

Test system: cognitive performance in subjects with AAMI
Test: CDR computerized cognitive test battery, 6-week pilot study in Age-Associated Memory Impairment (Example 1)
Type: in vivo, human
Conditions: for Quality of Episodic Secondary Memory, LS mean difference vs placebo: overall
Procedure: A single-center, 6-week, double-blind, randomizes, parallel-group, placebo-controlled, dose-ranging pilot study was performed to evaluate the efficacy, tolerability, and safety of >96% ethyl-EPA in subjects with subjective and objective memory impairment according to generally accepted criteria for Age-Associated Memory Impairment (“AAMI”). The primary objective of the study was to determine the effect of >96% ethyl-EPA 1 g, 2 g, and 4 g daily, compared to placebo, on cognitive performance in subjects with AAMI.
The population for this study was men and women between ages 50 and 70 with self-reported complaints of memory loss, subjective and objective cognitive impairment with a score of at least one standard deviation below that of the mean for age-matched elderly population as determined by the total score of between 13 and 20 from the Paired Associated Learning (“PAL”) subset of the Wechsler Memory Scale, evidence of adequate intellectual function as determined by a scaled score of at least 9 (raw score of at least 32) on the Vocabulary subtest of the Wechsler Adult Intelligence Scale and absence of dementia as determined by a score of 24 or higher on the Mini-Mental State Examination (“MMSE”).
Ninety-four subjects were randomized into one of six groups: 1 g E-EPA daily (n=23), 2 g E-EPA daily (n=24), 4 g E-EPA daily (n=24), 1 g placebo daily (n=7), 2 g placebo daily (n=8), and 4 g placebo daily (n=8). E-EPA was provided as 500 mg soft gel capsules containing >96% E-EPA and 0.2% dl-α-tocopherol as an antioxidant. Placebo capsules contained 467 mg of liquid paraffin and 0.2% dl-α-tocopherol. Ninety-one subjects completed the study. Two subjects in the 2 g E-EPA group and one subject in the 2 g placebo group discontinued the study.
The study consisted of a screening visit, a training visit, and four study visits. At the screening visit, subjects' eligibility was determined through cognitive tests (verbal paired associated learning [PAL] subscale, vocabulary subtest, Memory Assessment Clinics Questionnaire [MAC-Q], mini mental state evaluation [MMSE] and MINI [mini international neuropsychiatric interview; sections 1 and 2 of Diagnostic and Statistical Manual of Mental Disorders, 4th Edition (DSM-IV) plus dysthymia]), haematology, clinical chemistry and 12-lead electrocardiogram (ECG). At the training visit, subjects were shown how to use the CDR computerized system. Subjects took study drug for 6 weeks and on Days 0, 14, 28 and 42, subjects underwent the CDR cognitive test battery.
A selection of tasks from the CDR computerized cognitive assessment system were administered at Visit 2 (training visit), Visit 3 (baseline), Visit 4 (Day 14), Visit 5 (Day 28) and Visit 6 (Day 42). Parallel forms of the tests were presented at each testing session. All tasks were computer-controlled, the information presented on high resolution monitors, and the responses recorded via a response model containing two buttons: one marked ‘no’ and the other ‘yes’. Five CDR composite scores were used as the primary/secondary outcome variables. The task titles were: • Word Presentation • Immediate Word Recall • Picture Presentation • Simple Reaction Time • Digit Vigilance • Choice Reaction Time • Spatial Working Memory • Numeric Working Memory • Delayed Word Recall • Word Recognition • Picture Recognition • Bond-Lader Visual Analogue Scales of Mood and Alertness • Screen, Using the Computer Mouse
To ensure consistency of approach, full training on the cognitive tests and CDR test battery was provided to study site staff and study subjects. The results of each variable were automatically recorded using the machine interface developed by CDR.
Summary statistics were provided for the ITT and Study Per Protocol Populations separately for all composite scores, major and supportive variables. Summary statistics were performed for both the unadjusted and difference from baseline data (i.e. the difference from the time matched predose assessments on Day 0). […]

[1] = ITT, ANCOVA, 1, 2, 4 g daily vs placebo
[2] = post-hoc vs corresponding placebo
[3] = post-hoc vs corresponding placebo, 1 g, Days 14 and 28

## CC/C=C\C/C=C\C/C=C\C/C=C\C/C=C\CCCC(=O)OCC [AMR101, all-cis eicosa-5,8,11,14,17-pentaenoic acid ethyl ester]
ITT
  Self-Rated Contentment, LS mean difference to placebo: no statistically significant effects
ITT, 1 g, AM 1, p=0.040
  Immediate Word Recall Accuracy, LS mean difference vs placebo: statistically significant decreases
ITT, 1 g, Day 14, p=0.028
  Immediate Word Recall Accuracy, LS mean difference vs placebo: statistically significant decreases
ITT, 1 g, Day 14 at AM 2, p=0.084
  Picture Recognition Speed, LS mean difference vs placebo: trends for benefits versus placebo
ITT, 1 g, Day 14 at PM 2, p=0.020
  Immediate Word Recall Accuracy, LS mean difference vs placebo: statistically significant decreases
ITT, 1 g, Day 28, p=0.024
  Word Recognition Sensitivity Index, LS mean difference vs placebo: statistically significant decreases
ITT, 1 g, Day 28 at AM 1, p=0.085
  Picture Recognition Speed, LS mean difference vs placebo: trends for benefits versus placebo
ITT, 1 g, Day 28 at AM 2, p=0.017
  Picture Recognition Sensitivity Index, LS mean difference vs placebo: statistically significant decrease
ITT, 1 g, Day 28 at PM 2, p=0.040
  Picture Recognition Sensitivity Index, LS mean difference vs placebo: statistically significant decrease
ITT, 1 g, p=0.040
  Quality of Episodic Secondary Memory, LS mean difference vs placebo: statistically significant decreases versus placebo
ITT, 2 g, AM 1, p=0.028
  Immediate Word Recall Accuracy, LS mean difference vs placebo: statistically significant decreases
ITT, 2 g, Day 28, p=0.017
  Immediate Word Recall Accuracy, LS mean difference vs placebo: statistically significant decreases
ITT, 2 g, Day 28, p=0.047
  Self-Rated Alertness, LS mean difference vs placebo: statistically significant decrease in ratings
ITT, 2 g, Day 28 at AM 1, p=0.006
  Immediate Word Recall Accuracy, LS mean difference vs placebo: statistically significant decreases
ITT, 2 g, Day 28 at AM 2, p=0.041
  Self-Rated Alertness, LS mean difference vs placebo: statistically significant decrease in ratings
ITT, 2 g, p=0.035
  Quality of Episodic Secondary Memory, LS mean difference vs placebo: statistically significant decreases versus placebo
ITT, 4 g, Day 14 at PM 1, p=0.048
  Spatial Working Memory Speed, LS mean difference vs placebo: statistically significant benefit versus placebo
ITT, 4 g, Day 28 at PM 2, p=0.030
  Word Recognition Sensitivity Index, LS mean difference vs placebo: statistically significant decrease
ITT, 4 g, Day 42, p=0.038
  Word Recognition Sensitivity Index, LS mean difference vs placebo: statistically significant decreases
ITT, 4 g, Day 42 at AM 1, p=0.061
  Spatial Working Memory Speed, LS mean difference vs placebo: trend for a benefit
ITT, 4 g, PM 2, p=0.045
  Word Recognition Sensitivity Index, LS mean difference vs placebo: statistically significant decrease
ITT, ANCOVA
  Continuity of Attention: no statistically significant effect of treatment
  Delayed Word Recall Accuracy: no statistically significant effects of treatment
  Digit Vigilance Targets Detected: no statistically significant effect of treatment
  Immediate Word Recall Accuracy: no statistically significant effects of treatment
  Numeric Working Memory Speed: no statistically significant effects of treatment
  Picture Recognition Sensitivity Index: no statistically significant effects of treatment
  Picture Recognition Speed: no statistically significant effects of treatment
  Quality of Episodic Secondary Memory: no statistically significant effect of treatment
  Self-Rated Alertness: no statistically significant effect of treatment
  Self-Rated Calmness: no statistically significant effect of treatment
  Spatial Working Memory Speed: no statistically significant effects of treatment
  Speed of Memory: no statistically significant effects of treatment
  Word Recognition Sensitivity Index: no statistically significant effects of treatment
  Word Recognition Speed: no statistically significant effects of treatment
[1]
  Digit Vigilance Speed: no statistically significant effects of treatment
  Power of Attention: no statistically significant effect of treatment
  Simple Reaction Time: no statistically significant effects of treatment
ITT, ANCOVA, p<0.001
  Self-Rated Contentment: statistically significant treatment by day interaction
ITT, ANCOVA, p=0.011
  Choice Reaction Time: statistically significant treatment by day interaction
ITT, ANCOVA, p=0.015
  Spatial Working Memory Sensitivity Index: statistically significant treatment by day interaction
ITT, ANCOVA, p=0.019
  Quality of Working Memory: statistically significant treatment by day interaction
ITT, ANCOVA, p=0.089
  Numeric Working Memory Sensitivity Index: statistical trend for a treatment by day interaction
ITT, any time-point
  Power of Attention, LS mean difference active vs placebo: no LS mean difference between active treatment and placebo
Study Per Protocol, ANCOVA
  Continuity of Attention: no statistically significant effect of treatment
Study Per Protocol, ANCOVA, p=0.040
  Digit Vigilance Targets Detected: statistically significant treatment by time-point interaction
Study Per-Protocol
  Self-Rated Contentment, LS mean difference to placebo: no statistically significant effects
Study Per-Protocol, 1 g, AM 1, p=0.038
  Immediate Word Recall Accuracy, LS mean difference to placebo: statistically significant decreases
Study Per-Protocol, 1 g, AM 2, p=0.048
  Immediate Word Recall Accuracy, LS mean difference to placebo: statistically significant decreases
Study Per-Protocol, 1 g, Day 14, p=0.024
  Immediate Word Recall Accuracy, LS mean difference to placebo: statistically significant decreases
Study Per-Protocol, 1 g, Day 14 at PM 2, p=0.019
  Immediate Word Recall Accuracy, LS mean difference to placebo: statistically significant decreases
Study Per-Protocol, 1 g, Day 28, p=0.027
  Word Recognition Sensitivity Index, LS mean difference to placebo: statistically significant decreases
Study Per-Protocol, 1 g, Day 28 at AM 2, p=0.020
  Picture Recognition Sensitivity Index, LS mean difference vs placebo: statistically significant decreases versus placebo
Study Per-Protocol, 1 g, Day 28 at PM 2, p=0.026
  Picture Recognition Sensitivity Index, LS mean difference vs placebo: statistically significant decreases versus placebo
Study Per-Protocol, 1 g, p=0.043
  Quality of Episodic Secondary Memory, LS mean difference vs placebo: statistically significant decreases versus placebo
Study Per-Protocol, 2 g, AM 1, p=0.029
  Immediate Word Recall Accuracy, LS mean difference to placebo: statistically significant decreases
Study Per-Protocol, 2 g, Day 28, p=0.017
  Immediate Word Recall Accuracy, LS mean difference to placebo: statistically significant decreases
Study Per-Protocol, 2 g, Day 28, p=0.035
  Self-Rated Alertness, LS mean difference vs placebo: statistically significant decrease in ratings
Study Per-Protocol, 2 g, Day 28 at AM 1, p=0.006
  Immediate Word Recall Accuracy, LS mean difference to placebo: statistically significant decreases
Study Per-Protocol, 2 g, Day 28 at AM 2, p=0.033
  Self-Rated Alertness, LS mean difference vs placebo: statistically significant decrease in ratings
Study Per-Protocol, 2 g, p=0.036
  Quality of Episodic Secondary Memory, LS mean difference vs placebo: statistically significant decreases versus placebo
Study Per-Protocol, 4 g, Day 42, p=0.038
  Word Recognition Sensitivity Index, LS mean difference to placebo: statistically significant decreases
Study Per-Protocol, 4 g, Day 42 at PM 1, p=0.071
  Self-Rated Calmness, LS mean difference vs placebo: statistical trend for an increase in ratings versus placebo
Study Per-Protocol, ANCOVA
  Delayed Word Recall Accuracy: no statistically significant effects of treatment
  Digit Vigilance Speed: no statistically significant effects of treatment
  Immediate Word Recall Accuracy: no statistically significant effects of treatment
  Numeric Working Memory Speed: no statistical significant effects of treatment
  Picture Recognition Sensitivity Index: no statistically significant effects of treatment
  Picture Recognition Speed: no statistical significant effects of treatment
  Power of Attention: no statistically significant effect of treatment
  Quality of Episodic Secondary Memory: no statistically significant effects of treatment
  Self-Rated Alertness: no statistically significant effect of treatment
  Self-Rated Calmness: no statistically significant effect of treatment
  Simple Reaction Time: no statistically significant effects of treatment
  Spatial Working Memory Speed: no statistical significant effects of treatment
  Speed of Memory: no statistical significant effects of treatment
  Word Recognition Sensitivity Index: no statistically significant effects of treatment
  Word Recognition Speed: no statistical significant effects of treatment
Study Per-Protocol, ANCOVA, p<0.001
  Self-Rated Contentment: statistically significant treatment by day interaction
Study Per-Protocol, ANCOVA, p=0.013
  Choice Reaction Time: statistically significant treatment by day interaction
Study Per-Protocol, ANCOVA, p=0.014
  Spatial Working Memory Sensitivity Index: statistically significant treatment by day interaction
Study Per-Protocol, ANCOVA, p=0.021
  Quality of Working Memory: statistically significant treatment by day interaction
Study Per-Protocol, any time-point
  Power of Attention, difference active vs placebo: no difference between active treatment and placebo
[2]
  Continuity of Attention: no general pattern of effects
  Numeric Working Memory Sensitivity Index: only isolated improvements and declines in performance
  Quality of Working Memory: only isolated improvements and declines in performance
  Self-Rated Calmness: no differences between active treatment and placebo
post-hoc vs corresponding placebo group, 4 g, Day 42
  Power of Attention: overall benefit versus the corresponding placebo
[3]
  Self-Rated Alertness: decreases in ratings
  Self-Rated Contentment: decreases in ratings
post-hoc vs corresponding placebo, 4 g, Day 42
  Choice Reaction Time: superior to placebo at every time point
post-hoc vs corresponding placebo, 4 g, Day 42, Study PP Population
  Spatial Working Memory Sensitivity Index: overall benefit for ethyl-EPA 4 g over placebo
post-hoc vs corresponding placebo, 4 g, PM 2 collapsed across days, several time-points on Days 14 and 42
  Simple Reaction Time: improvements in performance
post-hoc vs corresponding placebo, 4 g, all study days
  Choice Reaction Time: overall benefit versus corresponding placebo
post-hoc vs corresponding placebo, explained by pre-existing differences between groups
  Quality of Episodic Secondary Memory and contributing subtasks: a number of decreases for ethyl-EPA
post-hoc vs corresponding placebo, mostly 1 g
  Subtask measures of Speed of Memory: some signs of improvement in performance
